Several values for one entry are separate records, joined by “and”; a condition that tells them apart may be missing. Equal entries are not always repeated. Structures can show the parent of a compound that is named as a salt.
Assay: Analysis of optical characteristics (absorption, fluorescence emission, quantum yield) in solvents
Type: physicochemical
Details: for peak emission (λmax): aqueous solution (H2O)
Experimental: Fluorescence emission spectra were obtained at 20° C. using a JASCO FP-6500 spectrofluorometer, a 10 mM stock solution prepared by dissolving an indolizino[3,2-c]quinoline compound in DMSO was diluted in a solvent. […] Absorption spectra were recorded at room temperature using a Perkin Elmer Lamda 20 UV/VIS spectrometer. […]
Further, the compounds (excluding Entry #51-57, etc.) of Formula 1 were subjected to spectrum analyses in various solvents, and the results are shown in Tables 6 and 7, and FIGS. 5C and 5D.

**Q.** With `c1cc(-c2nc3ccccc3c3cc4ccccn4c23)nc(-c2nc3ccccc3c3cc4ccccn4c23)c1` [IQ 5-D, 2,6-bis(indolizino[3,2-c]quinolin-6-yl)pyridine] as the compound, how does the “λex(nm)” value (Table 6) read?
**A.** The value was 402 nm and 422 nm.

**Q.** What about the “peak emission (λmax)” value of the same compound?
**A.** The value was 543 nm.

**Q.** Which “solvent-dependent (environment-sensitive) tendency of the emission” value (“solvent-dependent” for short) does the source give for `COc1ccc(-c2c3c(cc4ccccn43)c3ccccc3[n+]2C)cc1` [IQ 6-S1-Me, 6-(4-methoxyphenyl)-5-methylindolizino[3,2-c]quinolin-5-ium methyl sulfate] here?
**A.** Its value is “hardly showed an environment-sensitive optical characteristic”.

**Q.** And the “λex(nm)” value (Table 6)?
**A.** The value was 458 nm.

**Q.** Which results are given for `COc1ccc(-c2c3c(cc4ccccn43)c3ccccc3[n+]2CCCl)cc1` [IQ 6-S2-Cl, 5-(2-chloroethyl)-6-(4-methoxyphenyl)indolizino[3,2-c]quinolin-5-ium trifluoromethanesulfonate]?
**A.** solvent-dependent (environment-sensitive) tendency of the emission: hardly showed an environment-sensitive optical characteristic; λex(nm) (Table 6): 464 nm

**Q.** Which “λex(nm)” value (Table 6) does the source give for `CCCCn1cc(-c2c3c4ccccc4nc(-c4ccc(OC)cc4)c3n3ccccc23)nn1` [IQ 6-T, 12-(1-butyl-1H-1,2,3-triazol-4-yl)-6-(4-methoxyphenyl)indolizino[3,2-c]quinoline] here?
**A.** Its value is 403 nm.

**Q.** Which “λex(nm)” value (Table 6) does the source give for `COc1ccc(-c2nc3ccccc3c3c(-c4cn(CCOCCOCCOCCNC(=O)CCCCCC5[C@H]6NC(=O)N[C@H]6C[S+]5[O-])nn4)c4ccccn4c23)cc1` (stereo partly drawn) [IQ 6-T-B, N-(2-(2-(2-(2-(4-(6-(4-methoxyphenyl)indolizino[3,2-c]quinolin-12-yl)-1H-1,2,3-triazol-1-yl)ethoxy)ethoxy)ethoxy)ethyl)-6-((3aS,6aR)-5-oxido-2-oxohexahydro-1H-thieno[3,4-d]imidazol-4-yl)hexanamide] here?
**A.** Its value is 437 nm.

**Q.** For `COC(=O)c1c2c3ccccc3nc(-c3ccc[nH]3)c2n2ccccc12` [IQ 21, Methyl 6-(1H-pyrrol-2-yl)indolizino[3,2-c]quinoline-12-carboxylate], which “solvent-dependent” value is on record?
**A.** Its value is “blue-shift”.

**Q.** And the “peak emission (λmax)” value?
**A.** The value was 433 nm.

**Q.** Which “fluorescence (intensity, in words)” value does the source give for `CCOC(=O)c1c2c3ccccc3nc(-c3ccc([N+](=O)[O-])cc3)c2n2ccccc12` [IQ 26, ethyl 6-(4-nitrophenyl)indolizino[3,2-c]quinoline-12-carboxylate] here?
**A.** Its value is “did not induce fluorescence”.

**Q.** Which “solvent-dependent” value does the source give for `CCOC(=O)c1c2c3ccccc3nc(-c3cccc(F)c3)c2n2ccccc12` [IQ 28, ethyl 6-(3-fluorophenyl)indolizino[3,2-c]quinoline-12-carboxylate] here?
**A.** Its value is “solvatochromic effect”.

**Q.** With `CCOC(=O)c1c2c3ccccc3nc(-c3ccc(OC)c(OC)c3)c2n2ccccc12` [IQ 30, ethyl 6-(3,4-dimethoxyphenyl)indolizino[3,2-c]quinoline-12-carboxylate] as the compound, how does the “solvent-dependent” value read?
**A.** The value was “solvatochromic effect”.

**Q.** With `C#Cc1c2c3ccccc3nc(-c3ccc(OC)cc3)c2n2ccccc12` [IQ 55, 12-ethynyl-6-(4-methoxyphenyl)indolizino[3,2-c]quinoline] as the compound, how does the “solvent-dependent” value read?
**A.** The value was “hardly showed an environment-sensitive optical characteristic”.

**Q.** For `COc1ccc(-c2nc3ccccc3c3cc4cc(C#N)ccn4c23)cc1` [IQ 67, 6-(4-methoxyphenyl)indolizino[3,2-c]quinoline-10-carbonitrile], which “fluorescence (intensity, in words)” value is on record?
**A.** Its value is “further high fluorescence intensity in an aqueous solution”.

**Q.** With `COc1ccc(-c2nc3ccccc3c3cc4c5ccccc5ccn4c23)cc1` [IQ 77, 6-(4-methoxyphenyl)benzo[7,8]indolizino[3,2-c]quinoline] as the compound, how does the “fluorescence (intensity, in words)” value read?
**A.** Its value is “very high fluorescence intensity at a blue wavelength in EtOH and DMSO”.

**Q.** Which “fluorescence (intensity, in words)” value does the source give for `CCc1nc2ccccc2c2cc3c4ccccc4ccn3c12` [IQ 79, 6-ethylbenzo[7,8]indolizino[3,2-c]quinoline] here?
**A.** Its value is “very high fluorescence intensity at a blue wavelength in EtOH and DMSO”.

**Q.** With `Nc1ccc(-c2nc3ccccc3c3cc4ccccn4c23)cc1` [IQ-B1, 4-(indolizino[3,2-c]quinolin-6-yl)aniline] as the compound, how does the “solvent-dependent” value read?
**A.** Its value is “high solvent-dependent (i.e., environment-sensitive) tendency”.

**Q.** For `Oc1ccc(-c2nc3ccccc3c3cc4ccccn4c23)cc1` [IQ-B2, 4-(indolizino[3,2-c]quinolin-6-yl)phenol], which “solvent-dependent” value is on record?
**A.** The value was “high solvent-dependent (i.e., environment-sensitive) tendency”.

**Q.** With `C(=C\c1nc2ccccc2c2cc3ccccn3c12)/c1ccccc1` [IQ-B4, (E)-6-styrylindolizino[3,2-c]quinoline] as the compound, how does the “λex(nm)” value (Table 7) read?
**A.** Its value is 415 nm.

**Q.** With `COc1ccc(-c2nc3ccccc3c3cc4cc(C=O)ccn4c23)cc1` [IQ-B11, 6-(4-methoxyphenyl)indolizino[3,2-c]quinoline-10-carbaldehyde] as the compound, how does the “λex(nm)” value (Table 7) read?
**A.** Its value is 427 nm.

**Q.** And the “maximum wavelength of fluorescence” value (Tris buffer (pH 7.5))?
**A.** The value was 531 nm.

**Q.** Which “Abs maximum λ for UV” value does the source give for `COc1ccc(/C=C/c2nc3ccccc3c3cc4ccccn4c23)cc1` [IQ-B12, (E)-6-(4-methoxystyryl)indolizino[3,2-c]quinoline] here?
**A.** Its value is 344 nm.

**Q.** What about the Stokes shift of the same compound?
**A.** The Stokes shift was ≥ 180 nm.

**Q.** For `CN(/N=C/c1nc2ccccc2c2cc3ccccn3c12)c1ccccc1` [IQ-B16, (E)-6-((2-methyl-2-phenylhydrazineylidene)methyl)indolizino[3,2-c]quinoline], which “λex(nm)” value (Table 7) is on record?
**A.** Its value is 422 nm.

**Q.** With `COc1ccc(-c2nc3ccccc3c3cc4cc(/C=C/n5ccnc5)ccn4c23)cc1` [IQ-B20, (E)-10-(2-(1H-imidazol-1-yl)vinyl)-6-(4-methoxyphenyl)indolizino[3,2-c]quinoline] as the compound, how does the “fluorescence (intensity, in words)” value read?
**A.** Its value is “high fluorescence in other solvents as well as an aqueous solution”.

**Q.** For `COc1ccc(-c2nc3ccccc3c3cc4cc(-c5ccc(C=O)cc5)ccn4c23)cc1` [IQ-B23, 4-(6-(4-methoxyphenyl)indolizino[3,2-c]quinolin-10-yl)benzaldehyde], which “fluorescence (intensity, in words)” value is on record?
**A.** The value was “high fluorescence in DMSO”.

**Q.** And the “λex(nm)” value (Table 7)?
**A.** Its value is 434 nm.

**Q.** For `COc1ccc(-c2nc3ccccc3c3cc4cc(/C=C/C=O)ccn4c23)cc1` [IQ-B25, (E)-3-(6-(4-methoxyphenyl)indolizino[3,2-c]quinolin-10-yl)acrylaldehyde], which “fluorescence (intensity, in words)” value is on record?
**A.** The value was “high fluorescence in DMSO”.

**Q.** What about the “λex(nm)” value (Table 7) of the same compound?
**A.** Its value is 444 nm.

**Q.** Which “λex(nm)” value (Table 7) does the source give for `COc1ccc(-c2nc3ccccc3c3cc4cc(-c5ccc(C(=O)Nc6ccccc6)cc5)ccn4c23)cc1` [IQ-B35, 4-(6-(4-methoxyphenyl)indolizino[3,2-c]quinolin-10-yl)-N-phenylbenzamide] here?
**A.** Its value is 427 nm.

**Q.** Which “λex(nm)” value (Table 7) does the source give for `CCN(CC)C(=O)c1ccc(-c2ccn3c(c2)cc2c4ccccc4nc(-c4ccc(OC)cc4)c23)cc1` [IQ-B36, N,N-diethyl-4-(6-(4-methoxyphenyl)indolizino[3,2-c]quinolin-10-yl)benzamide] here?
**A.** Its value is 422 nm.

**Q.** With `COc1ccc(-c2nc3ccccc3c3cc4cc(-c5ccc6ccccc6c5)ccn4c23)cc1` [IQ-B39, 6-(4-methoxyphenyl)-10-(naphthalen-2-yl)indolizino[3,2-c]quinoline] as the compound, how does the “λex(nm)” value (Table 7) read?
**A.** Its value is 423 nm.

**Q.** Which “λex(nm)” value (Table 7) does the source give for `COc1ccc(-c2nc3ccccc3c3cc4cc(-c5ccc(C#N)cc5)ccn4c23)cc1` [IQ-B43, 4-(6-(4-methoxyphenyl)indolizino[3,2-c]quinolin-10-yl)benzonitrile] here?
**A.** The value was 431 nm.

**Q.** For `COc1ccc(-c2nc3ccccc3c3cc4cc(/C=C/C#N)ccn4c23)cc1` [IQ-B44, (E)-3-(6-(4-methoxyphenyl)indolizino[3,2-c]quinolin-10-yl)acrylonitrile], which “λex(nm)” value (Table 7) is on record?
**A.** The value was 436 nm.

**Q.** With `O=[N+]([O-])c1ccc(-c2nc3ccccc3c3cc4ccccn4c23)cc1` [compound 2] as the compound, how does the “quantum yield (Φ)” value (DW, standard Rhodamine 6G) read?
**A.** Its value is 0.000.

**Q.** And the “quantum yield (Φ)” value (EtOH, standard Coumarin 153)?
**A.** Its value is 0.000.

**Q.** And the “Relative fluorescence Emission Intensitynorm” value (normalized fluorescence intensity, H2O at 2 μM)?
**A.** Its value is 0.00.
